Measurements published in patent US20250388597A1, “BIFUNCTIONAL PHOTOCROSSLINKING PROBES FOR COVALENT CAPTURE OF PROTEIN-NUCLEIC ACID COMPLEXES IN CELLS” (UNIVERSITY OF SOUTHERN CALIFORNIA, priority 2022, published 2025).
Entries after “also recorded” stand apart in the source; their conditions may differ.

Columns and labels:
NFAT1/DNA complex = molecular target: T1, NFAT1/DNA complex (Homo sapiens, UniProt Q13469); experiment: In vitro photo-crosslinking of assembled NFAT1/DNA complex, denaturing SDS gel; type: biochemical; conditions: for formation of covalent NFAT1/DNA crosslinked complex stable under denaturing SDS-PAGE: probe + UV 365 nm, 2% SDS, boil 10 min
T1 construct: human NFAT1 protein (residue 399-676, NFAT1-DBD)
T1 sequence (Q13469 399-676): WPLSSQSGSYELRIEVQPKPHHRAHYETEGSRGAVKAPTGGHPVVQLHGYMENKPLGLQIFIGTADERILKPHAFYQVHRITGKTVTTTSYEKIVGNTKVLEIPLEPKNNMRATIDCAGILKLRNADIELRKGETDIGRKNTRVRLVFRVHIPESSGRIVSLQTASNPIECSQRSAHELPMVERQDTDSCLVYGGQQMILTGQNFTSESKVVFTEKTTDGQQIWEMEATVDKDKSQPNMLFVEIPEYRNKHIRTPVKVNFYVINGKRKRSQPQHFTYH
Method: The probe binding and UV crosslinking were carried out as described in FIG. 5G and FIG. 7. The crosslinked complexes (lane 3 and lane 6) were further treated with DTT (100 mM, heat 50 degree C. for 30 min). The reaction mixtures were run on SDS gel and visualized by FAM fluorescence for DNA (top) and by Coomassie blue stain for protein (bottom) as described in FIG. 7. FIG. 7 depicts denaturing SDS gel analysis of covalent capture of in vitro assembled MEF2/DNA and NFAT1/DNA complexes by the BFPX probe, SPB-AAD. […] The protein/DNA complexes are incubated at room temperature for 30 min, and treated with various combination of BFPX probe (SPB-AAD) and UV illumination as described in FIG. 5G. […] The reaction mixtures were added SDS loading dye (2% SDS), boil for 10 min, and run on SDS gel (Bio-Rad Any Kd gradient gel). The same gel was visualized by FAM fluorescence for DNA (top) and by Coomassie blue stain for protein (bottom). FIG. 8C depicts denaturing SDS gel analysis of covalent capture of in vitro assembled MEF2/DNA and NFAT1/DNA complexes by the BFPX probe, SPB-PEG3-AAD. […] The reaction mixtures were run on SDS gel and visualized by FAM fluorescence for DNA (top) and by Coomassie blue stain for protein (bottom) as described in FIG. 7. […] Typically protein and DNA are mixed to bind at room temperature for 30 min, followed by addition of BFPX probes for an additional 15 min and then UV illumination. In the case of FA treatment, the reaction time is 10 min at room temperature and then quenched by 250 mM glycine. […] The UV illumination (as indicated by a positive sign) was carried out using a LED Chip (21.4 mm×21.4 mm, 365-370 nm, 30 Watt, sample distance 2 cm, exposure time 2-15 min at 4 degree C., here the exposure time is 15 min). […] The small amount of single stranded DNA is due to incomplete annealing. The higher smearing bands are most likely non-specific protein complexes. Neither of these experimental imperfections affected the main conclusion of this experiment because the double stranded-DNA bands and the specific NFAT-DNA complex bands (the middle sharp bands) are well defined and can be monitored without the interference of the other bands. […] The gel was visualized by Cy5 fluorescence for DNA. FIG. 12E depicts further characterization of BFPX crosslinking of NFAT1/DNA complexes using different DNA substrates and staining techniques. Two unlabeled DNA substrates containing a core NFAT-binding site and different flanking bases and sequence lengths ([…] ID NO: 4), 21 mer, c2: [NT] ID NO: 5), 16 mer) were used to bind the NFAT1-DBD as described in FIG. 12C. […] The reactions were then analyzed by SDS PAGE under denaturing condition as described in FIG. 12D. Because the DNA is unlabeled, the gel was stained using either cyanine-based dye (SYBR Safe) or Coomassie Blue stain (CB). […] The different size of the NFAT-c1DNA complexes (lane 2) and NFAT-c2DNA complexes (lane 4) was resolved by loading reactions of lane 2 (2a, 2b and 2c) and lane 4 (4a, 4b and 4c) as triplicates side-by-side on the same gel (lower panel) using either SYBR and CB stain. FIG. 12F depicts time course of BFPX crosslinking of NFAT1/DNA complexes. […] The reactions at different time points were then analyzed on SDS gel as described in FIG. 12D. […] When the UV exposure time is longer than 5 min, a significant amount of crosslinked NFAT-DNA complex can be formed with UV illumination without SPB-AAD.

p53/DNA complex = molecular target: T2, p53/DNA complex (Homo sapiens, UniProt P04637); experiment: BFPX crosslinking of p53/DNA complexes, SDS PAGE; type: biochemical; conditions: denaturing SDS PAGE; probes with UV; vs no-protein controls
T2 construct: the human tumor suppressor p53 DBD; made in house
Method: FIG. 12I depicts BFPX crosslinking of p53/DNA complexes. The binding reactions between the human tumor suppressor p53 DBD and a 37 mer Cy5 labeled DNA containing a consensus p53 tetramer binding site (5′-/5Cy5/-[…]-3′, (SEQ ID NO: 8)) were set up and treated with BFPX probes and UV illumination as described in FIG. 12C. The various treatment combinations were list above the gel. The reactions were then analyzed by SDS PAGE under denaturing condition as described in FIG. 12D. […] Because p53 bind this this DNA substrate as a tetramer, crosslinked p53/DNA complexes may contain one or more p53 protein molecules. While the monomeric p53/DNA complex appears to be the dominant crosslinked protein-DNA complexes, higher-molecule weight species were visible in SDS gel, which may correspond to crosslinked higher-order p53/DNA complex.

[1] = Precipitation of probe in the aqueous crosslinking reaction; type: physicochemical; conditions: aqueous binding reaction; SPB-AAD 125 μM (FIG. 7 lanes 4, 9); SPB-PEG3-AAD 100 μM (FIG. 8C lanes 2, 6)
Method: The robust stability of these complexes under strong denaturing conditions (2% SDS and boiling for 10 min) is consistent with the covalent nature of the crosslinking reaction as designed in BFPX. […] As the probe concentration increased, more crosslinked protein/DNA complexes were formed, and the multiple bands likely represented protein-DNA complexes with various degrees of crosslinking, because multiple SPB-AAD molecules could bind the flanking region of the DNA binding sites and engage crosslinking reactions with the protein. At high probe concentrations (lane 5 and lane 10), the complexes become more uniform, likely due to the saturation binding of the BFPX probe to DNA.
For the BFPX probe SPB-PEG3-AAD, when the probe concentration was sufficiently high (lane 3 and lane 7 of FIG. 8C), the crosslinking efficiency was more than 90% for the MEF2/DNA complex based on the DNA signal (comparing lane 3 and lane 1 in the 5FAM gel, the free DNA in lane 3 was nearly all gone as compared the strong band in lane 1). This is consistent with the protein signal (compare lane 3 and lane 1 in the CCB-250 stained gel, the free protein in lane 3 was very faint as compared with the strong band in lane 1).

T2 sequence (P04637 102-292 limits assumed, one chain of several): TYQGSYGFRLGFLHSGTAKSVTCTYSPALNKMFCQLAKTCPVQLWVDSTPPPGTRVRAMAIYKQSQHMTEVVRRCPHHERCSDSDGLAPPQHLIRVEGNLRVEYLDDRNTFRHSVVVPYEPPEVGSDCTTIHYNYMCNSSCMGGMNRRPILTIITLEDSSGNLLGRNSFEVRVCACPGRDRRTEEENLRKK

Structure (SMILES) | low probe concentration at which a significant amount of crosslinked protein complex was observed (NFAT1/DNA complex; NFAT1/DNA, FIG. 7 lane 12, UV 365 nm) [µM] | UV illumination time at which crosslinked complex was visible (NFAT1/DNA complex; NFAT1/DNA, probe 100 μM) [s] | UV illumination time at which crosslinking reached plateau (NFAT1/DNA complex; NFAT1/DNA, probe 100 μM, plateau around 100 seconds and 5 min time points) | formation of covalent NFAT1/DNA crosslinked complex stable under denaturing SDS-PAGE (NFAT1/DNA complex) | crosslinking of the p53/DNA complex (p53/DNA complex) | precipitation of probe at highest probe concentration [1]
C#CCCC1(CCNC(=O)CCCOc2c3occc3cc3ccc(=O)oc23)N=N1 [SPB-AAD, N-(2-(3-(but-3-yn-1-yl)-3H-diazirin-3-yl)ethyl)-4-((7-oxo-7H-furo[3,2-g]chromen-9-yl)oxy)butanamide] | 0.125 | 3 | around 100 seconds | dosage dependent crosslinking of NFAT1/DNA complexes; also recorded: formation of complexes that run as larger molecular species than both free protein and DNA; also recorded: NFAT was crosslinked to c1 DNA (lane 2) and c2 DNA (lane 4) in the presence of UV | significant crosslinking of the p53/DNA complex | precipitation of the probe in an aqueous solution
C#CCCC1(CCNC(=O)CCOCCOCCOCCC(=O)NCCNC(=O)CCCOc2c3occc3cc3ccc(=O)oc23)N=N1 [SPB-PEG3-AAD] | – | – | – | highly efficient crosslinking | – | the probe precipitated out of solution
C#CCCC1(CCNC(=O)CCOCCOCCOCCOCCNC(=O)CCCOc2c3occc3cc3ccc(=O)oc23)N=N1 [SPB-PEG4-AAD, N-(2-(3-(but-3-yn-1-yl)-3H-diazirin-3-yl)ethyl)-1-(4-((7-oxo-7H-furo[3,2-g]chromen-9-yl)oxy)butanamido)-3,6,9,12-tetraoxapentadecan-15-amide] | – | – | – | dosage dependent crosslinking of NFAT1/DNA complexes | significant crosslinking of the p53/DNA complex | –
